Measurements from patent publication US7803792B2, “Quaternary ammonium compounds” (Asahi Kasei Pharma Corporation, priority 2002, dated 2010).

Legend:
[1] = system: bile duct partial ligation model; assay: Cholestasis-caused hepatopathy model, bile duct partial ligation, protocol A (Test Example 5); assay type: in vivo, rat; conditions: 1 mg/kg twice a day 3.5 days, 1% HCO60, average ± standard error; for ALT: controls 417 ± 185 / 384 ± 156; for AST: controls 589 ± 221 / 643 ± 125; for ALP: controls 2318 ± 583 / 2204 ± 327
Procedure: “Cholestasis-Caused Hepatopathy” Model (Bile Duct Partial Ligation Model)
The “cholestasis-caused hepatopathy” model by partial ligation surgery of bile duct in this test example was handled by referring to the method by Kanno et al. [Kanzo (Liver) 43 Suppl (1): A126, 2002].
That is, the abdomen of a 7 to 10 weeks old SD (IGS) male rat was cut open under anesthesia with pentobarbital and partial ligation surgery of the bile duct was carried out. A blood sample was taken from the femoral vein before the surgery and this was taken as pre-administration value. The test compound and 200 mg/kg of bile acid were forcibly orally administered twice a day for 3.5 days from the next day of the surgery (protocol A). The test compound and 200 mg/kg of bile acid were forcibly orally administered twice a day for 3.5 days without carrying out the partial ligation surgery (protocol B). In both the cases, the test compound was dissolved or suspended in distilled water or an aqueous solution of 1% HCO60 (manufactured by NIPPON CHEMICALS COMPANY, LTD.). […] Moreover, to consider the influence of the surgery, a pseudo operation group (a Sham group) was established as necessary. After 6 hours from the administration of the drug on the last day of the test, a blood sample was taken from the abdominal aorta and AST (GOT), ALT (GPT), and ALP in the blood were measured by using a measurement kit (GOTII-HA TEST WAKO, GPTII-HA TEST WAKO, and ALKALINE PHOSPHER-HA TEST WAKO respectively, all manufactured by WAKO PURE CHEMICAL […], LTD.) with an auto analyzer (NITTECH ANALYZER SUPER Z818).

Caco 2 cells = assay: Toxicity with respect to alimentary canal: cytotoxicity to Caco 2, LDH activity (Test Example 12); assay type: cell-based, human; conditions: LDH activity after 2 hours, relative to cytolytic agent = 100%
Outline: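 Human Caco 2 intestinal cells, cultured 48 hours after seeding at 10,000 cells/well, received test compounds diluted in medium. LDH released into the medium after 2 hours was measured and expressed relative to cytolytic-agent-lysed cells (100%) as cytotoxicity.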

KKAy/Ta Jcl obese mice = assay: Obesity and fatty liver model (Test Example 6); assay type: in vivo, mouse; conditions: average ± standard error; for Body Weight (g) 2 weeks later / Liver triglyceride / Body Weight (g) Variation amount: 1 mg/kg once a day for 2 weeks; for Liver triglyceride: controls 94 ± 18 / 103 ± 19; for Body Weight (g) Variation amount: controls −0.8 ± 0.5 / 0.7 ± 0.4; for Body Weight (g) Before administration: baseline of the 1 mg/kg group
Procedure: Obesity and Fatty Liver Model
The obesity and fatty liver model in this test example was handled by referring to the method described in WO02/09757.
That is, 10 weeks old KKA^y/Ta Jcl male mice were used as obese mice (N=from 4 to 7). The test compounds dissolved or suspended in an aqueous solution of 1% HCO60 (manufactured by NIPPON CHEMICALS COMPANY, LTD.) and an aqueous solution of 1% HCO60 (manufactured by NIPPON CHEMICALS COMPANY, LTD.) as a control group were administered once a day for 2 weeks continuously. The weights of the mice were measured every day and compared with the weights measured on the day before the administration. On the day next to the final day of administration of the drug, the livers were extracted and concentrations of triglycerides in the liver tissues were measured by using a measurement kit (TRIGLYCERIDE TEST WAKO, manufactured by WAKO PURE CHEMICAL […], LTD.).

human IBAT = target: T1, human IBAT (Homo sapiens, UniProt Q12908); assay: In vitro assay of temporarily expressed human IBAT transporter using Cos 7 cells (Test Example 8); assay type: cell-based; conditions: Cos 7 cells temporarily expressing human IBAT; [3H] taurocholate 8 μM, 37° C., 60 minutes
T1 construct: expressed in transfected cells; host or cells: Cos 7
T1 sequence (Q12908 1-348): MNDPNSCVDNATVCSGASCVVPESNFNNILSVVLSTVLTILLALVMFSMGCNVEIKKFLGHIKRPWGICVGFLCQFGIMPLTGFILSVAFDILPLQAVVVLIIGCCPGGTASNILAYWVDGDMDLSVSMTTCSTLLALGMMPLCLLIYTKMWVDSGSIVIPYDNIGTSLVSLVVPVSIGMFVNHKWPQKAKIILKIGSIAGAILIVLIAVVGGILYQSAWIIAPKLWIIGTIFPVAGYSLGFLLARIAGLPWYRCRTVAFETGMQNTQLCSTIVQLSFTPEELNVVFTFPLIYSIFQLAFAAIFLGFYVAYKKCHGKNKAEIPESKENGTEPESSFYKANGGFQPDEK
Outline: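 Cos 7 cells transiently transfected with human or rat IBAT cDNA, assayed one day later in Hank's buffer with 25 mM glucose, 10 mM HEPES (pH 7.4) plus compound. Uptake of 8 μM [^3H]taurocholate over 60 min at 37 °C, stopped with 1 mM taurocholate washes; lysate radioactivity by scintillation counting.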

Row | Structure (SMILES) | IC50 (human IBAT) [nM] | ALT [1] [IU/L] | AST [1] [IU/L] | ALP [1] [IU/L] | Toxicity (%) to Caco 2 (Caco 2 cells; 3 μM) [%] | Toxicity (%) to Caco 2 (Caco 2 cells; 10 μM) [%] | Toxicity (%) to Caco 2 (Caco 2 cells; 30 μM) [%] | Body Weight (g) 2 weeks later (KKAy/Ta Jcl obese mice) [g] | Liver triglyceride (KKAy/Ta Jcl obese mice) [mg/g] | Body Weight (g) Variation amount (KKAy/Ta Jcl obese mice) [g] | Body Weight (g) Before administration (KKAy/Ta Jcl obese mice) [g]
1 | CCCCC1(CCCC)CS(=O)(=O)c2ccc(N(C)C)cc2C(c2cccc(NC(=S)Nc3ccc(C[N+]45CCC(c6ccccc6)(CC4)CC5)cc3)c2)N1.[Br-] (centres unmarked) [Example 3696] | 39 | 191 ± 21 | 325 ± 87 | 1209 ± 125 | <1 | <1 | <1 | 42.2 ± 2.2 | 76 ± 12 | -1.3 ± 0.3 | 43.5 ± 1.3
2 | CCCCC1(CCCC)CS(=O)(=O)c2ccc(N(C)C)cc2C(c2cccc(NC(=S)CCCCC[N+]34CCC(CC3)CC4)c2)N1.[Br-] (centres unmarked) [Example 1, 1-{5-[3-(3,3-Dibutyl-7-dimethylamino-1,1-dioxo-2,3,4,5-tetrahydro-1,4-benzothiazepin-5-yl)phenylthiocarbamoyl]pentyl}-1-azoniabicyclo[2.2.2]octane bromide] | 25 | – | – | – | – | – | – | – | – | – | –
3 | CCCCC1(CCCC)CS(=O)(=O)c2ccc(N(C)C)cc2C(c2cccc(NC(=S)Nc3ccc(C[n+]4cccc(CCC(=O)OC)c4)cc3)c2)N1.[Br-] (centres unmarked) [Example 3752] | 41 | 165 ± 47 | 358 ± 87 | 1112 ± 184 | <1 | <1 | <1 | 41.5 ± 1.0 | 56 ± 23 | -2.3 ± 0.9 | 43.8 ± 1.2
4 | CCCCC1(CCCC)CS(=O)(=O)c2ccc(N(C)C)cc2C(c2cccc(NC(=S)Nc3ccc(C[n+]4cccc(CCCO)c4)cc3)c2)N1.[Br-] (centres unmarked) [Example 3747] | 45 | 146 ± 70 | 245 ± 81 | 960 ± 259 | <1 | <1 | <1 | 42.2 ± 1.8 | 47 ± 23 | -2.1 ± 1.0 | 44.3 ± 0.8
5 | CCCCC1(CCCC)CS(=O)(=O)c2ccc(N(C)C)cc2C(c2cccc(NC(=S)Nc3ccc(C[N+]4(Cc5ccccc5)CCC(O)CC4)cc3)c2)N1.[Br-] (centres unmarked) [Example 3605] | 39 | 258 ± 219 | 487 ± 382 | 1489 ± 533 | <1 | <1 | <1 | 41.4 ± 1.0 | 65 ± 7 | -1.5 ± 0.4 | 42.9 ± 1.1
6 | CCCCC1(CCCC)CS(=O)(=O)c2ccc(N(C)C)cc2C(c2cccc(NC(=S)Nc3ccc(C[n+]4ccc(C(C)(C)C)cc4)cc3)c2)N1.[Br-] (centres unmarked) [Example 3713] | 37 | 163 ± 96 | 280 ± 61 | 1008 ± 289 | <1 | <1 | <1 | 41.5 ± 2.4 | 59 ± 33 | -2.5 ± 0.6 | 44.0 ± 1.1

Now from value to molecule, other results behind:

Row | IC50 (human IBAT) [nM] | Structure (SMILES) | ALT [1] [IU/L] | AST [1] [IU/L] | ALP [1] [IU/L] | Toxicity (%) to Caco 2 (Caco 2 cells; 3 μM) [%] | Toxicity (%) to Caco 2 (Caco 2 cells; 10 μM) [%] | Toxicity (%) to Caco 2 (Caco 2 cells; 30 μM) [%] | Body Weight (g) 2 weeks later (KKAy/Ta Jcl obese mice) [g] | Liver triglyceride (KKAy/Ta Jcl obese mice) [mg/g] | Body Weight (g) Variation amount (KKAy/Ta Jcl obese mice) [g] | Body Weight (g) Before administration (KKAy/Ta Jcl obese mice) [g]
7 | 32 | CCCCC1(CCCC)CS(=O)(=O)c2ccc(N(C)C)cc2C(c2cccc(NC(=S)Nc3ccc(C[n+]4ccccc4CCC)cc3)c2)N1.[Br-] (centres unmarked) [Example 5408] | 197 ± 45 | 198 ± 65 | 1005 ± 102 | <1 | <1 | <1 | 42.2 ± 1.6 | 70 ± 11 | -1.8 ± 0.5 | 44.0 ± 0.9
8 | 37 | C#CC[N+](C)(Cc1ccccc1)Cc1ccc(NC(=S)Nc2cccc(C3NC(CCCC)(CCCC)CS(=O)(=O)c4ccc(N(C)C)cc43)c2)cc1 (centres unmarked) [Example 3448] | 181 ± 79 | 352 ± 210 | 1148 ± 332 | <1 | <1 | <1 | 42.1 ± 3.2 | 74 ± 8 | -2.0 ± 0.7 | 44.1 ± 0.7
9 | 37 | CCCCC1(CCCC)CS(=O)(=O)c2ccc(N(C)C)cc2C(c2cccc(NC(=S)Nc3ccc(C[N+](C)(C)Cc4ccccc4)cc3)c2)N1.[Br-] (centres unmarked) [Example 3440] | 155 ± 38 | 309 ± 37 | 1614 ± 189 | <1 | <1 | <1 | 43.9 ± 1.8 | 88 ± 6 | -0.7 ± 1.0 | 44.6 ± 0.8
